The results in this text go back to patent US11597704B2, “2,4-diaminoquinazoline derivatives and medical uses thereof” (Janssen Sciences Ireland Unlimited Company, priority 2018, dated 2023).

One test has as its target T1, human TLR7 (Homo sapiens, UniProt Q9NYK1).
T1 construct: expressed in transfected cells; host or cells: HEK293
T1 sequence (Q9NYK1 27-1049): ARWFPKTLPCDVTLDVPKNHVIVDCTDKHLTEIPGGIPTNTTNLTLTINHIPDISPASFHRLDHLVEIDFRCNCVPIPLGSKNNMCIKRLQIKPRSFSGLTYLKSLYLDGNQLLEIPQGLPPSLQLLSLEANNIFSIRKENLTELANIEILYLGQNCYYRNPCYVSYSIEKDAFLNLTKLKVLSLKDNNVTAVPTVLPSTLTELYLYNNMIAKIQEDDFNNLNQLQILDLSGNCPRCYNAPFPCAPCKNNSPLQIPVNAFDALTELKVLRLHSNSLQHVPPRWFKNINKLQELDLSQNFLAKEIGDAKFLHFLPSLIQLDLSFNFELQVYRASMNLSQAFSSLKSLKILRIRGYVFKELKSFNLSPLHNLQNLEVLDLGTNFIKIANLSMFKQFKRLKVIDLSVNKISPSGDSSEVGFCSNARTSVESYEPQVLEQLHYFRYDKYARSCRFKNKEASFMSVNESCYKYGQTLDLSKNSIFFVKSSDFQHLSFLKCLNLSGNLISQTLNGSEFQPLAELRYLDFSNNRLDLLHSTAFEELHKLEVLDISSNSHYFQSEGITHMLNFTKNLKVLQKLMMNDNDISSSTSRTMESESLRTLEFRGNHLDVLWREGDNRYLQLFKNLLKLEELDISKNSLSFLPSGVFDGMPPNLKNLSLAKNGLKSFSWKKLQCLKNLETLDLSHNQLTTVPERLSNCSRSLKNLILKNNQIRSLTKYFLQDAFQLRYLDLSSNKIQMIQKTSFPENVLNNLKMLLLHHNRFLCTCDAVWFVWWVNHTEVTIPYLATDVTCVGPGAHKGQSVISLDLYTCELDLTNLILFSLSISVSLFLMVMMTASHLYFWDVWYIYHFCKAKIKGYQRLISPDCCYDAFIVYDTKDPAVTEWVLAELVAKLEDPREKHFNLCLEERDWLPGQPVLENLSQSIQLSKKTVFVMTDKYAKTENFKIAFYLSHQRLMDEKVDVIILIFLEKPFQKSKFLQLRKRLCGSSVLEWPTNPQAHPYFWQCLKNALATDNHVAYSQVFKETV
In words: TLR7 NFκB-luc cellular reporter assay in transiently transfected HEK293 cells. Particulars: lowest effective concentration; HEK293 cells transfected with wild type TLR7 and NFκB-luc reporter, 6 h incubation. The class given is cell-based. Here is the method: (§1) The ability of compounds to activate human TLR7 and/or TLR8 was assessed in a cellular reporter assay using HEK293 cells transiently transfected with a TLR7 or TLR8 expression vector and NFκB-luc reporter construct. In one instance, the TLR expression construct expresses the respective wild type sequence or a mutant sequence comprising a deletion in the second leucine-rich repeat of the TLR.
(§2) HEK293 cells were grown in culture medium (DMEM supplemented with 10% FCS and 2 mM Glutamine). For transfection of cells in 10 cm dishes, cells were detached with Trypsin-EDTA, transfected with a mix of CMV-TLR7 or TLR8 plasmid (750 ng), NFκB-luc plasmid (375 ng) and a transfection reagent and incubated 24 h at 37° C. in a humidified 5% C02 atmosphere. Transfected cells were then detached with Trypsin-EDTA, washed in PBS and re-suspended in medium to a density of 1.67×10^5 cells/mL. Thirty microliters of cells were then dispensed into each well in 384-well plates, where 10 μL of compound in 4% DMSO was already present. Following 6 h incubation at 37° C., 5% CO2, the luciferase activity was determined by adding 15 μl of STEADY LITE PLUS substrate (PERKIN ELMER) to each well and readout performed on a VIEWLUX ULTRAHTS microplate imager (PERKIN ELMER). Dose response curves were generated from measurements performed in quadruplicates. Lowest effective concentrations (LEC) values, defined as the concentration that induces an effect which is at least two-fold above the standard deviation of the assay, were determined for each compound.

The target of a further test is T2, human TLR8 (Homo sapiens, UniProt Q9NR97).
T2 construct: expressed in transfected cells; host or cells: HEK293
T2 sequence (Q9NR97 27-1041): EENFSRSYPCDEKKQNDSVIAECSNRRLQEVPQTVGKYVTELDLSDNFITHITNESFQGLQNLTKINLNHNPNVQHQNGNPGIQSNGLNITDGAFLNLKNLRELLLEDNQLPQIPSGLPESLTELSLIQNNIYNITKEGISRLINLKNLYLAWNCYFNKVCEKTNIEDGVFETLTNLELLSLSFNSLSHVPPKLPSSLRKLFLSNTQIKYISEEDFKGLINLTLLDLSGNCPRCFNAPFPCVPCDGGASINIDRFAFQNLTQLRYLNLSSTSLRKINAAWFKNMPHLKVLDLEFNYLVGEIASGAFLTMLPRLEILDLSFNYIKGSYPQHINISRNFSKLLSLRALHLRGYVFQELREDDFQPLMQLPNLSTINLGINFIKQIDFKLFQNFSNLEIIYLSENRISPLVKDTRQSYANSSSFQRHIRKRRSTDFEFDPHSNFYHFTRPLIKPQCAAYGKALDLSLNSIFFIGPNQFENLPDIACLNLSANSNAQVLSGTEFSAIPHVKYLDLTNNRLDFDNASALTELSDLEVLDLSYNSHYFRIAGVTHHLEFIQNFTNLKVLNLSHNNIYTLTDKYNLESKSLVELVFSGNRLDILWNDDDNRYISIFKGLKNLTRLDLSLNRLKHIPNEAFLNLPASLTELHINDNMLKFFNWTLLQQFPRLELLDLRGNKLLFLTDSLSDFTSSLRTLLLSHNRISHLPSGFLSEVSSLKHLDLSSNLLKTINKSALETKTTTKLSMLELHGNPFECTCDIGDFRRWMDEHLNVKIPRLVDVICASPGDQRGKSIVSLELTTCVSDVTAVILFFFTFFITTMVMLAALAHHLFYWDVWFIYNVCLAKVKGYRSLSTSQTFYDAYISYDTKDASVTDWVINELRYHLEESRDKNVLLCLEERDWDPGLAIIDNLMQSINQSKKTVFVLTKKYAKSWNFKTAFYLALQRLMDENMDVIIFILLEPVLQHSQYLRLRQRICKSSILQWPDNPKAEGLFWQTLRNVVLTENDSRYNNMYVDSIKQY
In words: TLR8 NFκB-luc cellular reporter assay in transiently transfected HEK293 cells. It is filed as cell-based. Particulars: lowest effective concentration; HEK293 cells transfected with wild type TLR8 and NFκB-luc reporter, 6 h incubation. As for the experimental part:
as §1, §2

On human TLR7, `CC[C@H](C)[C@H](CO)Nc1nc(N)nc2cccc(F)c12` [Compound 21, (2R,3S)-2-((2-amino-5-fluoroquinazolin-4-yl)amino)-3-methylpentan-1-ol] had a hTLR7-wt (LEC) of 1.71 µM. The hTLR8-wt (LEC) at human TLR8 worked out at 0.09 µM.

`CCCC[C@H](CO)Nc1nc(N)nc2cc(C)ccc12` [Compound 14, (R)-2-((2-amino-7-methylquinazolin-4-yl)amino)hexan-1-ol]: the hTLR7-wt (LEC) at human TLR7 came to 11.5 µM. At human TLR8, the hTLR8-wt (LEC) was found to be 0.11 µM.

The compound `CCCC[C@H](CO)Nc1nc(N)nc2cc(C(=O)N(C)C)ccc12` [Compound 25, (R)-2-amino-4-((1-hydroxyhexan-2-yl)amino)-N,N-dimethylquinazoline-7-carboxamide] yielded a hTLR7-wt (LEC) at human TLR7 greater than 100 µM. On human TLR8, this compound displayed a hTLR8-wt (LEC) of 3.89 µM.
